The values that follow come from ChEMBL document CHEMBL5113478, “7-Azaindole, 2,7-diazaindole, and 1H-pyrazole as core structures for novel anticancer agents with potential chemosensitizing properties” (Eur J Med Chem, 2022).

For assay [1], the system named is MOLT-4. The assay can be described thus: Antiproliferative activity against human MOLT-4 cells assessed as […] cell proliferation at 10 uM incubated for 48 hrs by WST-1 assay relative to control. Format: functional.
Assay [2] deals with MOLT-4. Briefly: Antiproliferative activity against human MOLT-4 cells assessed as […] cell proliferation at 10 uM incubated for 48 hrs in presence of 2 uM of CDDP by WST-1 assay relative to control. Format: functional. Background: Tetrazolium assays rely on reduction of a dye to a coloured formazan, in cell work by metabolically active cells.
Assay [3] deals with Jurkat. Briefly: Antiproliferative activity against human Jurkat cells assessed as […] cell proliferation at 10 uM incubated for 48 hrs by WST-1 assay relative to control. Format: functional.
The subject of assay [4] is Jurkat. The assay can be described thus: Antiproliferative activity against human Jurkat cells assessed as […] cell proliferation at 10 uM incubated for 48 hrs in presence of 2 uM of CDDP by WST-1 assay relative to control. Format: functional.
In assay [5] the test system is A2780. Briefly: Antiproliferative activity against human A2780 cells assessed as […] cell proliferation at 10 uM incubated for 48 hrs by WST-1 assay relative to control. It counts as functional.
The subject of assay [6] is A2780. The assay can be described thus: Antiproliferative activity against human A2780 cells assessed as […] cell proliferation at 10 uM incubated for 48 hrs in presence of 2 uM of CDDP by WST-1 assay relative to control. It counts as functional.
The subject of assay [7] is MCF7. The assay can be described thus: Antiproliferative activity against human MCF7 cells assessed as […] cell proliferation at 10 uM incubated for 48 hrs by WST-1 assay relative to control. It counts as functional.
The subject of assay [8] is MCF7. The assay can be described thus: Antiproliferative activity against human MCF7 cells assessed as […] cell proliferation at 10 uM incubated for 48 hrs in presence of 10 uM of CDDP by WST-1 assay relative to control. It counts as functional.
Assay [9] has as its system A549. Briefly: Antiproliferative activity against human A549 cells assessed as […] cell proliferation at 10 uM incubated for 48 hrs by WST-1 assay relative to control. Format: functional.
The subject of assay [10] is A549. The assay can be described thus: Antiproliferative activity against human A549 cells assessed as […] cell proliferation at 10 uM incubated for 48 hrs in presence of 15 uM of CDDP by WST-1 assay relative to control. Format: functional.
For assay [11], the system named is SAOS-2. The assay can be described thus: Antiproliferative activity against human SAOS-2 cells assessed as […] cell proliferation at 10 uM incubated for 48 hrs by WST-1 assay relative to control. Format: functional.
Assay [12] has as its system SAOS-2. Briefly: Antiproliferative activity against human SAOS-2 cells assessed as […] cell proliferation at 10 uM incubated for 48 hrs in presence of 15 uM of CDDP by WST-1 assay relative to control. It counts as functional.
Assay [13] has as its system PANC-1. The assay can be described thus: Antiproliferative activity against human PANC-1 cells assessed as […] cell proliferation at 10 uM incubated for 48 hrs by WST-1 assay relative to control. It counts as functional.
The test system of assay [14] is PANC-1. Briefly: Antiproliferative activity against human PANC-1 cells assessed as […] cell proliferation at 10 uM incubated for 48 hrs in presence of 15 uM of CDDP by WST-1 assay relative to control. It counts as functional.
Assay [15] deals with HT-29. Briefly: Antiproliferative activity against human HT-29 cells assessed as […] cell proliferation at 10 uM incubated for 48 hrs by WST-1 assay relative to control. Format: functional.
In assay [16] the test system is HT-29. Briefly: Antiproliferative activity against human HT-29 cells assessed as […] cell proliferation at 10 uM incubated for 48 hrs in presence of 15 uM of CDDP by WST-1 assay relative to control. Format: functional.
The test system of assay [17] is HeLa. Briefly: Antiproliferative activity against human HeLa cells assessed as […] cell proliferation at 10 uM incubated for 48 hrs by WST-1 assay relative to control. It counts as functional.
The test system of the next assay is 1321N1. The assay can be described thus: Cytotoxicity against human 1321N1 cells assessed as reduction in cell viability at 15 uM incubated for 48 hrs by MTT assay. It counts as functional, cell-based.
In a further assay the test system is GBM. The assay can be described thus: Cytotoxicity against patient-derived human GBM cells assessed as reduction in cell viability at 15 uM incubated for 48 hrs by MTT assay. It counts as functional.
The nature of assay [18]: Chemo-sensitizing activity against human 1321N1 cells at 15 uM incubated for 48 hrs in presence of TMZ by MTT assay relative to control. It counts as functional.
Assay [19] relates to HeLa. The assay can be described thus: Antiproliferative activity against human HeLa cells assessed as […] cell proliferation at 10 uM incubated for 48 hrs in presence of 15 uM of CDDP by WST-1 assay relative to control. Format: functional.

Each structure is given as a SMILES string. Activity calls are given as the source filed them. No cut-off for these calls is given here.

For `CC(C)S(=O)(=O)c1ccc(-c2cnc3[nH]cc(CN4CCC(c5ccccc5)CC4)c3c2)cc1`, the Activity in the assay on MOLT-4 [1] was 77%; in the assay on MOLT-4 [2], 46%; in the assay with Jurkat [3], 77%; in the assay with Jurkat [4] it was 46%; in the assay with A2780 [5], 77%; in the assay on A2780 [6] it was 46%. Further, the Activity worked out at 77% with MCF7 [7]; 46% with MCF7 [8]; 77% in the assay with A549 [9]; 46% in the assay with A549 [10]; 77% in the assay on SAOS-2 [11]; 46% in the assay with SAOS-2 [12]. The Activity came out at 77% in the assay with PANC-1 [13]; 46% in the assay on PANC-1 [14]; 46% in the assay with HT-29 [16]; 77% in the assay on HeLa [17]; 100% in [18]; 46% in the assay on HeLa [19]. Moreover, the “Cell viability relative to control” value with HT-29 [15] came out at 77%. The result with 1321N1 and with GBM was Active.
